For the data set the following is noted: stretched and non-stretched groups; systems removed at 24 and 48 hours.

Excerpt: In one group of 12 hairless guinea pigs the skin of one flank was stretched manually bi-directionally ( ? and ? ) before application of a foam double adhesive ring having a thickness of 0.8 mm ( 1/32 inch) with a 2 cm^2 hole in the middle which would later contain the drug. The bi-directional stretching was estimated to achieve a skin tension of between 0.1 and 1 M Pa. The adhesive ring served to keep the skin under the drug compartment in the stretched configuration. Next, a 2 cm^2 stainless steel microprotrusion array having trapezoidal microprotrusions with microprotrusion lengths of 430 μm and a microprotrusion density of 241 microprotrusions/cm^2 was applied to the skin beneath the drug compartment using an approximately 2 kg/cm^2 normal manual pressure. The microprotrusion array was held for a few seconds and then removed.
A second group of 12 hairless guinea pigs were treated in the same way, except that the skin was not stretched. At 12, 24, and 48 hours after application four systems from each group were removed and residual drug was washed from the skin.

Regarding `NCCCC[C@H](N[C@@H](CCc1ccccc1)C(=O)O)C(=O)N1CCC[C@H]1C(=O)O` [lisinopril], the “drug flux after 12 hours” value is recorded as “no drug flux in either group”.

The values are drawn from patent US7087035B2 (priority 1999, dated 2006).
